Reference: US20200369630A1, “HERBICIDALLY ACTIVE 3-PHENYL-5-TRIFLUOROMETHYLISOXAZOLINE-5-CARBOXAMIDES OF CYCLOPENTYLCARBOXYLIC ACIDS AND ESTERS” (Bayer Aktiengesellschaft, priority 2017, published 2020)

What was measured:
Assay in all cases: Post-emergence herbicidal action
Assay type in all cases: in vivo
AVEFA: Avena fatua = settings: Table C2, post-emergence, dosage 320 (0.32 kg of active substance per hectare), rated visually after about 3 weeks
Description: (§1) [table] Seeds of monocotyledonous and dicotyledonous weeds and crop plants are placed in sandy loam in plastic or wood-fiber pots, covered with soil and cultivated in a greenhouse under controlled growth conditions. 2 to 3 weeks after sowing, the test plants are treated at the one-leaf stage. The compounds of the invention, formulated in the form of wettable powders (WP) or as emulsion concentrates (EC), are then sprayed onto the green parts of the plants as aqueous suspension or emulsion with addition of 0.5% additive at a water application rate of […] (converted). After the test plants had been kept in the greenhouse under optimum growth conditions for about 3 weeks, the activity of the preparations is rated visually in comparison to untreated controls. For example, 100% activity=the plants have died, 0% activity=like control plants.

VERPE: Veronica persica = settings: rated visually after about 3 weeks
Description: as §1

HORMU: Hordeum murinum = settings: rated visually after about 3 weeks
Description: as §1

STEME: Stellaria media = settings: Table C2, post-emergence, dosage 320 (0.32 kg of active substance per hectare), rated visually after about 3 weeks
Description: as §1

[1] = system: AMARE: Amaranthus retroflexus; settings: rated visually after about 3 weeks
Description: as §1

[2] = system: ECHCG: Echinochloa crus-galli; settings: Table C2, post-emergence, dosage 320 (0.32 kg of active substance per hectare), rated visually after about 3 weeks
Description: as §1

[3] = system: POLCO: Polygonum convolvulus; settings: rated visually after about 3 weeks
Description: as §1

LOLRI: Lolium rigidum = settings: rated visually after about 3 weeks
Description: as §1

[4] = system: ALOMY: Alopecurus myosuroides; settings: rated visually after about 3 weeks
Description: as §1

[5] = Table C2, post-emergence, dosage 320 (0.32 kg of active substance per hectare)
[6] = Table C4, post-emergence, 320 g/ha

SMILES | Herbicidal action against [%] AVEFA (AVEFA: Avena fatua) | Herbicidal action against [%] VERPE (VERPE: Veronica persica; [5]) | Herbicidal action against [%] HORMU (HORMU: Hordeum murinum; [5]) | Herbicidal action against [%] STEME (STEME: Stellaria media) | Herbicidal action against [%] AMARE [1, 5] | Herbicidal action against [%] ECHCG [2] | Herbicidal action against [%] POLCO [3, 5] | Herbicidal action against [%] LOLRI (LOLRI: Lolium rigidum; [5]) | Herbicidal action against [%] ALOMY [4, 5] | Herbicidal action against [%] VERPE (VERPE: Veronica persica; [6]) | Herbicidal action against [%] HORMU (HORMU: Hordeum murinum; [6]) | Herbicidal action against [%] AMARE [1, 6] | Herbicidal action against [%] POLCO [3, 6] | Herbicidal action against [%] LOLRI (LOLRI: Lolium rigidum; [6]) | Herbicidal action against [%] ALOMY [4, 6]
COC(=O)C1CCC(NC(=O)C2(C(F)(F)F)CC(c3cc(F)c(F)c(F)c3)=NO2)C1 (mixture of isomers) [Example I-171] | 90% | 80% | 80% | 80% | 80% | 80% | 80% | 100% | 100% | – | – | – | – | – | –
CCOC(=O)C1CCC(NC(=O)C2(C(F)(F)F)CC(c3cc(F)c(F)c(F)c3)=NO2)C1 (mixture of isomers) [Example I-185] | 100% | 80% | 90% | 80% | 80% | 80% | 90% | 90% | 90% | – | – | – | – | – | –
O=C(O)C1CCC(NC(=O)C2(C(F)(F)F)CC(c3cccc(F)c3)=NO2)C1 (mixture of isomers) [Example I-311] | 100% | 90% | 100% | 100% | 90% | 100% | 100% | 100% | 100% | – | – | – | – | – | –
COC(=O)C1CCC(NC(=O)C2(C(F)(F)F)CC(c3cccc(F)c3)=NO2)C1 (mixture of isomers) [Example I-325] | 100% | 80% | 90% | 90% | 80% | 90% | 80% | 100% | 90% | – | – | – | – | – | –
CCOC(=O)C1CCC(NC(=O)C2(C(F)(F)F)CC(c3cccc(F)c3)=NO2)C1 (mixture of isomers) [Example I-339] | 100% | 90% | 100% | 100% | 100% | 100% | 100% | 100% | 100% | – | – | – | – | – | –
O=C(OCCCl)C1CCC(NC(=O)C2(C(F)(F)F)CC(c3cccc(F)c3)=NO2)C1 (mixture of isomers) [Example I-409] | 100% | 90% | 100% | 100% | 90% | 100% | 100% | 100% | 100% | – | – | – | – | – | –
O=C(OCC(F)(F)F)C1CCC(NC(=O)C2(C(F)(F)F)CC(c3cccc(F)c3)=NO2)C1 (mixture of isomers) [Example I-423] | 100% | 90% | 100% | 100% | 90% | 100% | 90% | 100% | 100% | – | – | – | – | – | –
Cc1cc(Cl)cc(C2=NOC(C(=O)NC3CCC(C(=O)OCCCl)C3)(C(F)(F)F)C2)c1 (mixture of isomers) [Example I-838] | – | – | – | – | – | – | – | – | – | 80% | 90% | 80% | 100% | 100% | 100%
Cc1cc(Cl)cc(C2=NOC(C(=O)NC3CCC(C(=O)OCC(F)(F)F)C3)(C(F)(F)F)C2)c1 (mixture of isomers) [Example I-844] | – | – | – | – | – | – | – | – | – | 90% | 80% | – | 100% | 90% | 100%
CC(C)(C)OC(=O)[C@H]1CC[C@@H](NC(=O)C2(C(F)(F)F)CC(c3cc(F)cc(F)c3)=NO2)C1 (relative stereo) [Example I-85, tert-butyl cis-3-({[3-(3,5-difluorophenyl)-5-(trifluoromethyl)-4,5-dihydro-1,2-oxazol-5-yl]carbonyl}amino)cyclopentanecarboxylate] | – | – | – | – | – | – | – | – | – | 80% | 90% | 80% | – | 90% | 90%
COC(=O)[C@H]1CC[C@H](NC(=O)C2(C(F)(F)F)CC(c3cc(F)cc(F)c3)=NO2)C1 (stereo partly drawn) [Example I-20, methyl (1S,3S)-3-({[3-(3,5-difluorophenyl)-5-(trifluoromethyl)-4,5-dihydro-1,2-oxazol-5-yl]carbonyl}amino)cyclopentanecarboxylate] | – | – | – | – | – | – | – | – | – | 90% | 90% | 80% | – | 90% | 80%
COC(=O)[C@H]1CC[C@H](NC(=O)[C@@]2(C(F)(F)F)CC(c3cc(F)cc(F)c3)=NO2)C1 [Example I-28] | – | – | – | – | – | – | – | – | – | 80% | 90% | – | 80% | 90% | 80%
